Laboratory results published in patent US11357756B2, “Anesthetic compositions and methods comprising imidazoline compounds” (Warsaw Orthopedic, Inc., priority 2017, dated 2022).
“Also recorded” adds a separate entry of the source. Where a name gives a salt, the structure may show the parent alone.

Assays:
[1] = tested on: sciatic nerve; assay: Evoked compound action potentials (CAP), ipsilateral sciatic nerve after intraneural injection; type: in vivo, male Sprague Dawley (SD) rats; settings: for effect of yohimbine pre-administration on elimination of evoked sciatic action potentials by clonidine: 1 mg yohimbine SQ 5 minutes prior to 500 μg intraneural clonidine, HCL
Description: (§1) It is noted that alpha 2 adrenergic receptors are not expressed along the peripheral axons of the nerve. They are on nerve endings and in the spinal cord, where peripheral nerves synapse with interneurons in the dorsal horn. There also may be receptor-mediated effects on immunoinflammatory cells. […] However, there was no effect on the left sciatic nerve.
2 m Amp stimulation in the ankle causes the action potential to propagate up to the tibial nerves and then the sciatic nerve to the dorsal horn of the spinal cord in the rat model.
(§2) Methods: Peripheral nerve function was assessed by evoked action potentials (sciatic nerve) as well as spinal somatosensory evoked potentials in male Sprague Dawley (SD) rats. The tibial nerve was stimulated with 10 milliamperes (mA) constant current delivered with platinum micro-electrodes placed proximal to the internal ankle. Recording electrodes were placed near the proximal sciatic nerve at the sciatic notch (ipsilateral and contralateral nerves) and over the L5 interlaminar space. Measurements were obtained with a Biopac MP36 amplifier and data acquisition unit (Biopac Systems, Goleta, Cal). Following collection of baseline data, test solutions were administered directly into the subparaneural compartment of the right sciatic nerve, approximately 0.5 cm proximal to the tibial/fibular bifurcation, using a Hamilton HPLC injection syringe (20 μl, injection volume). Saline served as the negative control and commercial 2% lidocaine for injection served as the positive control.
(§3) FIG. 21 depicts representative compound action potential traces (CAP), sciatic nerve. A stimulating electrode delivered 10 mAMP current to the distal tibial nerve near the internal ankle, and a recording electrode was placed near the proximal sciatic nerve (at the sciatic notch). Following baseline recordings (top row), test solution was injected directly into the sciatic nerve (20 μl volume). Evoked compound action potentials at 3 minutes and approximately 50 minutes post-injection appear in the middle and bottom rows, respectively.

[2] = tested on: sciatic nerve; assay: Spinal somatosensory evoked potentials (SSEP) after intraneural sciatic injection; type: in vivo, male Sprague Dawley (SD) rats
Description: as §2

[3] = tested on: contralateral sciatic nerve; assay: Evoked action potentials, contralateral sciatic nerve; type: in vivo, male Sprague Dawley (SD) rats
Description: as §1, §2, §3

[4] = tested on: incisional pain model; settings: no temporal relationship to systemic exposure; cited from earlier work
[5] = intraneural injection, 20 μl, 4 parameter non-linear regression
[6] = commercial 2% lidocaine for injection, 20 μl intraneural

In the case of `Clc1cccc(Cl)c1N=C1NCCN1` [clonidine, 2,6-dichloro-N-2-imidazolidinyldenebenzenamine], the “effect on CAP amplitude” value ([1]; 50 μg intraneural) is reported as “no discernable effect”, the “time through which sciatic evoked potential amplitude differed from control (p<0.05)” value ([1]; 100 μg) is reported as 7 min and the “effect on action potential (CAP) amplitude” value (shortened to “effect on action potential”) ([1]; 100 μg intraneural, versus control, 3 minutes) is reported as “significant reduction; also recorded: significantly blunted”. The “time through which sciatic evoked potential amplitude differed from control (p<0.05)” value ([1]; 200 μg) was 18 min, the “effect on action potential” value ([1]; 200 μg intraneural) was “significantly greater reduction” and the “effect on action potential” value ([1]; 200 μg intraneural, listed as clonidine HCL) was “virtually eliminated”. For the same compound, the “time through which sciatic evoked potential amplitude differed from control (p<0.05)” value ([1]; 500 μg) was 35 min, the “effect on compound action potentials in the ipsilateral sciatic nerve” value ([1]; 500 μg intraneural) was “reliably eliminated” and the “doses at which an anesthetic like effect was observed” value ([1]; Example 1, clinically relevant doses) was under 100 µg. For the same compound, the “dose injected directly into nerve that eliminates the action potential” value ([1]; Example 2, 2 m Amp stimulation in the ankle) was at least 50 µg, the duration of effect ([1]; Example 2, 500 mcg lasts a lot longer than 50 mcg) was “proportional to dose” and the “nerve conduction velocity as nerve fibers return to function” value ([1]; higher doses) was “approximately normal”. The “effect on propagation of action potentials, right sciatic nerve” value ([1]; injected directly into the right sciatic nerve of the rat (Example 1)) was “blocked the ability of the nerve to propagate action potentials to the spinal cord”, the “EC50 for evoked compound action potentials in the sciatic nerve” value [1, 5] was 71 µg and the “effect on nerve conduction velocity (ipsilateral sciatic nerve)” value ([1]; lower doses, fibers that continue to propagate action potentials) was “modest”. The “animals in which spinal somatosensory evoked potentials were eliminated” value ([2]; 500 μg intraneural) was 3 out of 4, the “EC50 for spinal somatosensory evoked potentials” value [2, 5] was 118 µg and the “effect on the contralateral sciatic nerve” value ([3]; 500 μg intraneural) was “no effect”. The “effect on the contralateral sciatic nerve” value ([3]; any dose of clonidine (50-500 μg), including spinal recordings following contralateral stimulation) was “not affected”, the “effect on the left sciatic nerve” value ([3]; injected into the right sciatic nerve (Example 1)) was “no effect” and the “skin concentrations associated with analgesic effect” value [4] was at least 10 ng/g.

With `CCN(CC)CC(=O)Nc1c(C)cccc1C` [lidocaine] the “time through which sciatic evoked potential amplitude differed from control (p<0.05)” value ([1]; 2% lidocaine) was 35 min, the “time for which compound action potentials in the ipsilateral sciatic nerve and spine were eliminated” value [1, 6] was over 20 min and the “time over which nerve function recovered” value ([1]; positive control 2% lidocaine (Example 1)) was “approximately one hour”. For the same compound, the “effect on the contralateral sciatic nerve” value [3, 6] was “did not affect”.

With `COC(=O)[C@@H]1[C@H]2C[C@H]3c4[nH]c5ccccc5c4CCN3C[C@@H]2CC[C@@H]1O` [yohimbine HCL] the “effect of yohimbine pre-administration on elimination of evoked sciatic action potentials by clonidine” value [1] was “unaffected; also recorded: no effect”, the “effect of yohimbine pre-administration on elimination of evoked sciatic action potentials by clonidine” value ([1]; listed as yohimbine) was “no effect” and the “effect of yohimbine pre-administration on sciatic nerve block duration by clonidine” value ([1]; pre-administration t=(−)10 minutes) was “did not inhibit”. For the same compound, the “effect of yohimbine pre-administration on reduction in spinal SEP amplitude by clonidine” value ([2]; 1 mg yohimbine prior to 500 μg intraneural clonidine) was “no effect”.
